{"source": "ChEMBL document CHEMBL1201862", "about": "“PubChem BioAssay data set” (2004)", "key": {"[1]": {"assay": "C. albicans growth with fluconazole, confirmation, fluorescence, retest (AID 2467)", "type": "functional, cell-based"}, "[2]": {"assay": "NIH-3T3 fibroblast cytotoxicity, dose response, cytotoxicity control, cell-based, fluorescence, Alamar Blue, secondary assay (AID 2327);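 note: NIH-3T3 mouse fibroblasts cultured with fluconazole at 8 µg/mL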", "type": "functional"}, "Vero": {"test_system": "Vero", "assay": "host cell cytotoxicity of antiviral hits, dose response, cytotoxicity control for West Nile virus antiviral project, secondary assay (AID 1650)", "type": "functional", "conditions": "Chlorocebus sabaeus"}, "NADPH oxidase 1 [3]": {"target": "T1, NADPH oxidase 1 (Homo sapiens, UniProt Q9Y5S8)", "T1 sequence (Q9Y5S8 whole entry)": "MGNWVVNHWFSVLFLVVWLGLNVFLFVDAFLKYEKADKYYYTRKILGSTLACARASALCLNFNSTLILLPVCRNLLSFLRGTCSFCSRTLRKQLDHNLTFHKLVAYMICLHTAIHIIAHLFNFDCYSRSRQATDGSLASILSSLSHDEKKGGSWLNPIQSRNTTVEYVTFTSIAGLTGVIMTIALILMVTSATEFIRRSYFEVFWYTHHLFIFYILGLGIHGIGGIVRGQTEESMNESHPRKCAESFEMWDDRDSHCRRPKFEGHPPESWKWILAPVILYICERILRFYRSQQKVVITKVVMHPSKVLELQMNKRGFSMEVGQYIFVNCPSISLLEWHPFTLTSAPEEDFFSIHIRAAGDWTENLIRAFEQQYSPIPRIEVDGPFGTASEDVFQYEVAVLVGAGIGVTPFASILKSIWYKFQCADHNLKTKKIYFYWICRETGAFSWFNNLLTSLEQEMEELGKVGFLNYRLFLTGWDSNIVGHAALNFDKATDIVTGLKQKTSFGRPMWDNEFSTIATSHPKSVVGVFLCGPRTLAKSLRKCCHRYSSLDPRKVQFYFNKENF", "assay": "Late-stage luminescence-based cell-based dose response assay to identify inhibitors of NADPH oxidase 1 (NOX1): Synthesized analogs 2.", "type": "functional"}, "Genome polyprotein": {"target": "Genome polyprotein (Hepatitis C virus, UniProt Q2Q167)", "sequence (Q2Q167 whole entry)": "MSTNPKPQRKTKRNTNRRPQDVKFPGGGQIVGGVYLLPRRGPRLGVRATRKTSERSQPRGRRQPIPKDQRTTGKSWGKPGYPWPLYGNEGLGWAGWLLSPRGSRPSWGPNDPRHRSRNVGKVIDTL", "assay": "HCV core protein dimerization inhibitors, dose response, biochemical, TR-FRET (AID 2159);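 note: blocks dimerization of HCV core protein measured by TR-FRET between tagged core106 pairs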", "parameters": "species or system Hepacivirus hominis"}, "[4]": {"assay": "P. falciparum late gametocyte killing, dose response, luminescence (AID 1117278);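 note: gametocytes exposed to compound for 24 hours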", "type": "functional, cell-based"}, "[5]": {"assay": "Jurkat T cell cytotoxicity, dose response, cytotoxicity control for P. falciparum gametocyte viability project, luminescence (AID 1117277);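 note: potency reflects loss of cellular ATP meaning fewer viable cells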", "type": "functional, cell-based"}, "[6]": {"target": "Induced myeloid leukemia cell differentiation protein Mcl-1 (Homo sapiens, UniProt Q07820)", "sequence (Q07820 whole entry)": "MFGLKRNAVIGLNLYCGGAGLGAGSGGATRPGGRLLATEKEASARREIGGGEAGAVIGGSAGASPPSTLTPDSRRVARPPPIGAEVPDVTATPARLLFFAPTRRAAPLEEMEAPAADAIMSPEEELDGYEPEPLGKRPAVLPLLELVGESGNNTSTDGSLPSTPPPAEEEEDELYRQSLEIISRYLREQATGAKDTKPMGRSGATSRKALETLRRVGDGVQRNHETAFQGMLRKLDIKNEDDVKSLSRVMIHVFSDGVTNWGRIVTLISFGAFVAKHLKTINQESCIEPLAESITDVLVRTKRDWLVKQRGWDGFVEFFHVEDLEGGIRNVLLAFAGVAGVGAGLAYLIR", "type": "functional"}, "[7]": {"assay": "Luminescence Cell-Based Dose Response to Identify Activators of 5'UTR Stem-Loop Driven Prion Protein mRNA Translation in H4-C Neuroglioblastoma Cells. [Related pubchem assays: 1829 (Project Summary), 1814 (Primary HTS)]", "type": "functional"}, "[8]": {"assay": "Luminescence Cell-Based Dose Response HTS to Identify Activators of Luciferase Translation or Activity in H4 […] Cells. [Related pubchem assays: 1829 (Project Summary), 1814 (Primary HTS)]", "type": "functional"}, "H4": {"test_system": "H4", "assay": "Luminescence Cell-Based Dose Response HTS to Identify Activators of 5'UTR Stem-Loop Driven Prion Protein mRNA Translation in H4 Neuroglioblastoma Cells. [Related pubchem assays: 1829 (Project Summary), 1814 (Primary HTS)]", "type": "functional", "conditions": "Homo sapiens"}, "[9]": {"assay": "Luminescence Cell-Based Dose Confirmation to Identify Activators of 5'UTR Stem-Loop Driven Alpha-Synuclein mRNA Translation in H4 Neuroglioblastoma Cells. [Related pubchem assays: 1829 (Project Summary), 1814 (Primary HTS)]", "type": "functional"}, "[10]": {"assay": "Luminescence Cell-Based Dose Response to Identify Activators of Luciferase Translation or Activity in H4-C Neuroglioblastoma Cells. [Related pubchem assays: 1829 (Project Summary), 1814 (Primary HTS)]", "type": "functional"}, "[11]": {"assay": "Luminescent dose response cell-based high throughput screening assay for inhibitors of the Janus kinase 2 mutant JAK2V617F. [Related pubchem assays: 1446 (Primary screen.), 1521 (Confirmation assay.), 1486 (Counter screen.)]", "type": "functional"}, "[12]": {"test_system": "Streptococcus sp. 'group A'", "assay": "growth inhibition of control SK(-) GAS strain, dose response, counter-screen for streptokinase expression inhibitor project, luminescence, kanamycin, BacTiterGlo, confirmation (AID 1900)", "type": "functional, organism-based"}, "Streptokinase A": {"target": "T2, Streptokinase A (Streptococcus pyogenes serotype M1, UniProt P10520)", "T2 sequence (P10520 whole entry)": "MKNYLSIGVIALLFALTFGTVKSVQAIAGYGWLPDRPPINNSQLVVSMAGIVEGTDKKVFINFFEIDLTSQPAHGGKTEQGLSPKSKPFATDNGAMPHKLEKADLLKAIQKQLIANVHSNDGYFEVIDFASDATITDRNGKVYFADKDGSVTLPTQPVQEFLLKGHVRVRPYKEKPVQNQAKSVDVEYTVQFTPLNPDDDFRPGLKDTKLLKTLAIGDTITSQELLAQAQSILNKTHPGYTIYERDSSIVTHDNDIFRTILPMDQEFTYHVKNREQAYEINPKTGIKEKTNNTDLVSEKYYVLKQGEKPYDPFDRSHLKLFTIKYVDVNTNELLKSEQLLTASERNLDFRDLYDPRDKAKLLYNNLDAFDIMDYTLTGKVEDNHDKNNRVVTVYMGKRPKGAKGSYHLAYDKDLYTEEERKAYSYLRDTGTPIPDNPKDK", "assay": "S. pyogenes streptokinase expression inhibitors, potency, dose response, plasminogen activation absorbance, OD405 (AID 1914);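 note: secreted streptokinase activity via plasminogen activation per viability signal from cell pellet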", "type": "functional, Streptococcus pyogenes M1 GAS"}, "Streptococcus": {"test_system": "Streptococcus", "assay": "Group A Streptococcus viability loss, dose response, counter-screen for streptokinase expression inhibitor project, luminescence, BacTiterGlo (AID 1915);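 note: potency for reduction of bacterial viability or growth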", "type": "functional, organism-based"}, "NADPH oxidase 1 [13]": {"target": "T1, NADPH oxidase 1", "assay": "Late-stage luminescence-based cell-based dose response assay to identify inhibitors of NADPH oxidase 1 (NOX1): Purchased analogs 2.", "type": "functional"}, "[14]": {"assay": "M. tuberculosis H37Rv growth inhibitors, H37Rv strain (AID 1626)", "type": "functional"}}, "note": "The source made the active and inactive calls. Cut-off read from the data, not from the text of the source, for most assays here: actives have a measured EC50 and inactives only a lower limit.", "data": [{"smiles": "Nc1nsc2ccccc12", "values": [{"measurement": "EC50", "setting": "[1]", "result": "3.19 µM (active)"}, {"measurement": "EC50", "setting": "[2]", "result": "24.5 µM (inconclusive)"}, {"measurement": "CC50", "setting": "Vero", "result": "41.7 µM (active)"}]}, {"smiles": "O=C(c1ccccc1)c1ccccc1N1c2ccccc2Sc2ccccc21", "values": [{"measurement": "IC50", "setting": "NADPH oxidase 1 [3]", "result": "> 50 µM (not active)"}]}, {"smiles": "CCN(CC)S(=O)(=O)c1ccc(N2CCOCC2)c(NC(=O)c2c3c(nc4ccccc24)CCC3)c1", "values": [{"measurement": "IC50", "setting": "Genome polyprotein", "result": "> 49.8 µM (not active)"}, {"measurement": "IC50", "setting": "[4]", "result": "> 109 µM (inactive)"}, {"measurement": "IC50", "setting": "[5]", "result": "> 83.3 µM (inactive)"}, {"measurement": "IC50", "setting": "[6]", "result": "5.07 µM (active)"}]}, {"smiles": "S=C(c1ccc(-c2ccc(Br)cc2)o1)N1CCOCC1", "values": [{"measurement": "EC50", "setting": "[7]", "result": "0.507 µM (active)"}, {"measurement": "EC50", "setting": "[8]", "result": "< 0.1 µM (active)"}, {"measurement": "EC50", "setting": "H4", "result": "18.6 µM (inconclusive)"}, {"measurement": "EC50", "setting": "[9]", "result": "0.251 µM (active)"}, {"measurement": "EC50", "setting": "[10]", "result": "0.378 µM (active)"}]}, {"smiles": "O=C(Oc1cccc2c(O)cccc12)c1ccccc1", "values": [{"measurement": "IC50", "setting": "[11]", "result": "7.47 µM (active)"}, {"measurement": "EC50", "setting": "[12]", "result": "29 µM (active)"}, {"measurement": "EC50", "setting": "Streptokinase A", "result": "63.7 µM (active)"}, {"measurement": "EC50", "setting": "Streptococcus", "result": "> 150 µM (not active)"}]}, {"smiles": "Cc1cc(Cl)ccc1NC(=S)NNC(=S)Nc1ccc(Cl)cc1C", "values": [{"measurement": "IC50", "setting": "NADPH oxidase 1 [13]", "result": "3.51 µM (active)"}]}, {"smiles": "CCOC(=O)c1ccc(NCc2ccc(N(C)C)cc2)cc1", "values": [{"measurement": "IC50", "setting": "[14]", "result": "> 100 µM (active)"}]}]}
